# Tested on: Galium aparine
# Experiment: greenhouse pre-emergence trial, percent damage vs untreated control 21 days after treatment
# Type: in vivo
# Details: GALAP
smiles,measurement,setting,value
"FC(F)(F)c1ccc(-c2nccc(Oc3cccc(C(F)(F)F)c3)n2)cc1 [Compound A, 4-(3-trifluoromethylphenoxy)-2-(4-trifluoromethylphenyl)-pyrimidine]",Compound A alone (% control),"3.75 g/ha, Example 1A",0%
same,Compound A alone (% control),"3.75 g/ha, Example 2",0%
same,Compound A alone (% control),"7.5 g/ha, Example 2",0%
same,Compound A alone (% control),"15 g/ha, Example 2",10%
same,Compound A alone (% control),"15 g/ha, Example 3",0%
same,Compound A alone (% control),"30 g/ha, Example 3",0%
same,Compound A alone (% control),"60 g/ha, Example 3",10%
